# Data reported in patent publication US20230192700A1, “PYRAZOLOPYRAZINES ACTING ON CANCERS VIA INHIBITION OF CDK12” (Bayer Aktiengesellschaft, priority 2020, published 2023).
# Read-outs that look alike come from different tables or passages of the source.
# Columns and labels:
# [1] = system: MDA-MB-231 human breast cancer cells; assay: Proliferation assay MDA-MB-231 (crystal violet); assay type: cell-based; details: MDA-MB-231 cells, 4 days, median, read-out: Prolif-MDA MB231 IC50 - [mol/l] (median)
# Experimental: 4. Proliferation assay: MDA-MB-231, CAL-120
# Human tumour cells were originally obtained from the American Type Culture Collection (ATCC), or from the Deutsche Sammlung von Mikroorganismen and Zellkulturen (DSMZ, German Collection of Microorganisms and Cell Cultures). Cultivated tumour cells (CAL-120, human breast adenocarcinoma cells, DSMZ ACC-459; MDA-M B-231, human breast cancer cells, ATCC HTB-26) were plated at a density of 4,000 cells/well in a 96-well multititer plate in 200 microL of their respective growth medium supplemented 10% fetal calf serum. After 24 hours, the cells of one plate (zero-point plate) were stained with crystal violet (see below), while the medium of the other plates was supplemented with the test substances in various concentrations (0 micromol/L, as well as in the range of 0.01-10 micromol/L; the final concentration of the solvent dimethyl sulfoxide was adjusted to 0.1%) using a Tecan HP D300 Digital Dispenser. The cells were incubated for 4 days in the presence of test substances. Cell proliferation was determined by staining the cells with crystal violet: the cells were fixed by adding 20 microL/measuring point of an 11% glutaric aldehyde solution for 15 minutes at room temperature. After three washing cycles of the fixed cells with water, the plates were dried at room temperature. The cells were stained by adding 100 microL/measuring point of a 0.1% crystal violet solution (pH 3.0). After three washing cycles of the stained cells with water, the plates were dried at room temperature. The dye was dissolved by adding 100 microL/measuring point of a 10% acetic acid solution. The extinction was determined by photometry at a wavelength of 595 nm. The change of cell number, in percent, was calculated by normalization of the measured values to the extinction values of the zero-point plate(=0%) and the extinction of the untreated (0 μM) cells(=100%). The IC50 values (inhibitory concentration at 50% of maximal effect) were determined by means of a 4 parameter fit.
# [2] = target: T1, CDK12 (Homo sapiens, UniProt Q9NYV4); assay: CDK12 nuclear protein level: immunofluorescence/high content analysis in CAL-120 cells; assay type: cell-based; details: for DC50: CAL-120 cells, 24 h, nuclear CDK12 staining intensity, median, read-out: CDK12 degradation IF DC50 - [mol/l] (median); for (IC50 CDK12 high ATP) to (Degradation DC50 CDK12) ratio: ratio of IC50 CDK12 hATP (2 mM ATP) to DC50 CDK12 (IF, CAL-120)
# T1 construct: endogenous in cells; host or cells: CAL-120 human breast cancer cells (DSMZ ACC 459)
# T1 sequence (Q9NYV4 whole entry): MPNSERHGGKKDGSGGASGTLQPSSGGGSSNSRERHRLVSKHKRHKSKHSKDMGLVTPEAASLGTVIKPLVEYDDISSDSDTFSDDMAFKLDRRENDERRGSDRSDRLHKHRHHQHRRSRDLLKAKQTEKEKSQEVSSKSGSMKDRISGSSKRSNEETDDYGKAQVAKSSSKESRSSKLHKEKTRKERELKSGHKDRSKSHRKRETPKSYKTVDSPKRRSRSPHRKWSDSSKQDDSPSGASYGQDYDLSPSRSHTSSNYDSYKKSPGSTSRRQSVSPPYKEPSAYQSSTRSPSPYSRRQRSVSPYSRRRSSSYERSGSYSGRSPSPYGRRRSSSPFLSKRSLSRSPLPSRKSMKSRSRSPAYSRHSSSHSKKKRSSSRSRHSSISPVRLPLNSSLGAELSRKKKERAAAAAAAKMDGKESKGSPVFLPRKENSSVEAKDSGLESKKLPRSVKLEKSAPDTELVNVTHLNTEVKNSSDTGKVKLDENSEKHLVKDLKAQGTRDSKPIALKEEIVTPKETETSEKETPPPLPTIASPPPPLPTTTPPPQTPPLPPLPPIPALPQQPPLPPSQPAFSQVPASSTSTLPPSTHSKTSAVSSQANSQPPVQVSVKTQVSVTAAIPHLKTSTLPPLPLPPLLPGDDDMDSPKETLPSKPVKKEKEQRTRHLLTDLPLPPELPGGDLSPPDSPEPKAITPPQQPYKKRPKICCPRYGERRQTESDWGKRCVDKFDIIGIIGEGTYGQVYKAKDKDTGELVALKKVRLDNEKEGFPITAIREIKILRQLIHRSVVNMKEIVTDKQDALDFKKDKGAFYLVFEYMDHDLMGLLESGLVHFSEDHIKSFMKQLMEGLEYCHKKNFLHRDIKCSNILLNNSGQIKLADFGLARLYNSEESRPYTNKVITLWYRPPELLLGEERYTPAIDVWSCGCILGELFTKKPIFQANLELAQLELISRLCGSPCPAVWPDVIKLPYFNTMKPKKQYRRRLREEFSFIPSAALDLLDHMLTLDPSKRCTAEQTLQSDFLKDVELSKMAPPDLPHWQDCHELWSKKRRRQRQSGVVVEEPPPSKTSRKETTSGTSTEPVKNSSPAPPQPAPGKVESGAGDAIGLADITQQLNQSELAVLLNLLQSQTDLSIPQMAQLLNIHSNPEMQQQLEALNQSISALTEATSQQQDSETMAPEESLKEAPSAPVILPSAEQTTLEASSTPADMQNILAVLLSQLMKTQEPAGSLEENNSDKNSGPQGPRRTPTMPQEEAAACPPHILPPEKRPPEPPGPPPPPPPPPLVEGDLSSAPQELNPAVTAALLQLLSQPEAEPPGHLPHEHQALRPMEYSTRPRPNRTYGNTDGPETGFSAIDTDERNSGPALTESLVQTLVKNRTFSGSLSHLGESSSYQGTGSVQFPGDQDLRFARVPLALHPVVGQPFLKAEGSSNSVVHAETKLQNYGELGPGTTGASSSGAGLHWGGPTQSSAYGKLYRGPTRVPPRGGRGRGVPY
# T1 sequence (O75909 whole entry partner): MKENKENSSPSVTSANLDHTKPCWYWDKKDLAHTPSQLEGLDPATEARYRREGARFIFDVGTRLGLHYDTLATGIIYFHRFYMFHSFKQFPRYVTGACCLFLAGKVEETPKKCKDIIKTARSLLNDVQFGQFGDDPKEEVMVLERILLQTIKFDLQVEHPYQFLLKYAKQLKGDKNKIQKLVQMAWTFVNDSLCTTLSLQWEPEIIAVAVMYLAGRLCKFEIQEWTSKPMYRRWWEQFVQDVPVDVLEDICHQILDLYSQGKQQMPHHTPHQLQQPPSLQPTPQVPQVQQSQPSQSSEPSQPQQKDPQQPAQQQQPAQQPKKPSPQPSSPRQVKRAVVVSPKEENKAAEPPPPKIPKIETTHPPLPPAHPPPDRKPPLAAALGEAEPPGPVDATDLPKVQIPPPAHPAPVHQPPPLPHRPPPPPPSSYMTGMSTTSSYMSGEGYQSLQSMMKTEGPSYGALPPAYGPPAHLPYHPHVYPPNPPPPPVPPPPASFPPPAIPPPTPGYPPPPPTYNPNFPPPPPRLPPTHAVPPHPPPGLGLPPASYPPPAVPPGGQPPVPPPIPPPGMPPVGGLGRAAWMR
# Experimental: 6. CDK12 Nuclear Protein Level: Immunofluorescence/High Content Analysis
# In the context of the present invention, the term “DC50 CDK12” refers to the DC50 values obtained according to the assay described in this section (6) herein below, i.e. the DC50 values for the degradation of CDK12.:
# CAL-120 human breast cancer cells (DSMZ ACC 459) are seeded in 1536-well microtiter plates (800 cells per well) containing 50 nanoL of compounds in Dose-Response. Control wells received DMSO or Reference Example 1. Plates are then incubated for 24 h at 37° C. in an humidified incubator and fixed with 4% PFA for 10 min. Then immunofluorescence (IF) against CDK12 (CellSignalling CDK12 Antibody #11973, rabbit, 1:100 dilution) is performed using standard IF protocols. Cells are then stained with Hoechst 33342 (Life Technologies, H-1399, 0.1 microg/mL) and imaged on an automated confocal microscopy system (e.g. Perkin Elmer Opera Phenix). Nuclear and cytoplasmic intensity as well as the nuclear/cytoplasmic intensity ratio is determined by automated image analysis using custom generated scripts (MetaXpress). Data is then transferred to Genedata Screener software, normalized to DMSO and control and DC50 values (degrading concentration to achieve 50% reduction of nuclear CDK12 staining intensity relative to controls) are reported.
IC50 [1],DC50 [2],(IC50 CDK12 high ATP) to (Degradation DC50 CDK12) ratio [2],"IC50 ([1]; Homo sapiens, MDA-MB-231, 96 h)",SMILES
46.5 nM,13.2 nM,>1516,,"CN1CCCC(n2nc(NCc3nc4ccccc4[nH]3)c3ncc(C4CC4)nc32)CC1 (single isomer, unassigned) [Example 38, (−) or (+)-N-[(1H-benzimidazol-2-yl)methyl]-6-cyclopropyl-1-[(4R*)-1-methylazepan-4-yl]-1H-pyrazolo[3,4-b]pyrazin-3-amine]"
1780 nM,912 nM,>22,,"CC(CCN(C)C)n1nc(NCc2nc3ccccc3[nH]2)c2ncc(C3CC3)nc21 (single isomer, unassigned) [Example 63, (+) or (−)-N-[(1H-benzimidazol-2-yl)methyl]-6-cyclopropyl-1-[4-(dimethylamino)butan-2-yl]-1H-pyrazolo[3,4-b]pyrazin-3-amine]"
536 nM,82.6 nM,>242,,"CC(CCN(C)C)n1nc(NCc2nc3ccccc3[nH]2)c2ncc(C3CC3)nc21 (single isomer, unassigned) [Example 64, (−) or(+)-N-[(1H-benzimidazol-2-yl)methyl]-6-cyclopropyl-1-[4-(dimethylamino)butan-2-yl]-1H-pyrazolo[3,4-b]pyrazin-3-amine]"
34.7 nM,33.6 nM,>596,,"CN1CCC(n2nc(NCc3nc4ccccc4[nH]3)c3ncc(C4CC4)nc32)C1 (single isomer, unassigned) [Example 78, (+) or (−)-N-[(1H-benzimidazol-2-yl)methyl]-6-cyclopropyl-1-(1-methylpyrrolidin-3-yl)-1H-pyrazolo[3,4-b]pyrazin-3-amine]"
217 nM,41.2 nM,,,"CN1CCC(n2nc(NCc3nc4ccccc4[nH]3)c3ncc(C4CC4)nc32)C1 (single isomer, unassigned) [Example 79, (−) or (+)-N-[(1H-benzimidazol-2-yl)methyl]-6-cyclopropyl-1-(1-methylpyrrolidin-3-yl)-1H-pyrazolo[3,4-b]pyrazin-3-amine]"
816 nM,32.4 nM,>618,,"COCCC(C)n1nc(NCc2nc3ccccc3[nH]2)c2ncc(C3CC3)nc21 (single isomer, unassigned; (+)) [Example 59, (+)-N-[(1H-benzimidazol-2-yl)methyl]-6-cyclopropyl-1-[4-methoxybutan-2-yl]-1H-pyrazolo[3,4-b]pyrazin-3-amine]"
213 nM,27.2 nM,>735,,"COCCC(C)n1nc(NCc2nc3ccccc3[nH]2)c2ncc(C3CC3)nc21 (single isomer, unassigned; (-)) [Example 58, (−)-N-[(1H-benzimidazol-2-yl)methyl]-6-cyclopropyl-1-[4-methoxybutan-2-yl]-1H-pyrazolo[3,4-b]pyrazin-3-amine]"
,4.2 nM,>2380,24.9 nM,"CN1CCC(n2nc(NCc3nc4ccccc4[nH]3)c3ncc(C4CC4)nc32)CC1 [Example 1, N-[(1H-benzimidazol-2-yl)methyl]-6-cyclopropyl-1-(1-methylpiperidin-4-yl)-1H-pyrazolo[3,4-b]pyrazin-3-amine]"
,6.09 nM,>3284,10.8 nM,"COc1cccc2[nH]c(CNc3nn(C4CCN(C)CC4)c4nc(C5CC5)cnc34)nc12 [Example 2, 6-cyclopropyl-N-[(4-methoxy-1H-benzimidazol-2-yl)methyl]-1-(1-methylpiperidin-4-yl)-1H-pyrazolo[3,4-b]pyrazin-3-amine]"
,1.92 nM,,3.73 nM,"CN1CCC(n2nc(NCc3nc4c(F)cccc4[nH]3)c3ncc(C4CC4)nc32)CC1 [Example 3, 6-cyclopropyl-N-[(4-fluoro-1H-benzimidazol-2-yl)methyl]-1-(1-methylpiperidin-4-yl)-1H-pyrazolo[3,4-b]pyrazin-3-amine]"
,4.3 nM,,51.3 nM,"CN1CCC(n2nc(NCc3nc4cc(F)ccc4[nH]3)c3ncc(C4CC4)nc32)CC1 [Example 4, 6-cyclopropyl-N-[(5-fluoro-1H-benzimidazol-2-yl)methyl]-1-(1-methylpiperidin-4-yl)-1H-pyrazolo[3,4-b]pyrazin-3-amine]"
,14.4 nM,,39.1 nM,"CN1CCC(n2nc(NCc3nc4c(C(F)(F)F)cccc4[nH]3)c3ncc(C4CC4)nc32)CC1 [Example 7, 6-cyclopropyl-1-(1-methylpiperidin-4-yl)-N-{[4-(trifluoromethyl)-1H-benzimidazol-2-yl]methyl}-1H-pyrazolo[3,4-b]pyrazin-3-amine]"
,8.53 nM,>2344,39.6 nM,"Cc1cccc2[nH]c(CNc3nn(C4CCN(C)CC4)c4nc(C5CC5)cnc34)nc12 [Example 8, 6-cyclopropyl-N-[(4-methyl-1H-benzimidazol-2-yl)methyl]-1-(1-methylpiperidin-4-yl)-1H-pyrazolo[3,4-b]pyrazin-3-amine]"
,8.07 nM,>2478,41.2 nM,"CN1CCC(n2nc(NCc3nc4c(F)c(F)ccc4[nH]3)c3ncc(C4CC4)nc32)CC1 [Example 9, 6-cyclopropyl-N-[(4,5-difluoro-1H-benzimidazol-2-yl)methyl]-1-(1-methylpiperidin-4-yl)-1H-pyrazolo[3,4-b]pyrazin-3-amine]"
,74.9 nM,>267,176 nM,"CC(C)(C)OC(=O)N1CCC(n2nc(NCc3nc4ccccc4[nH]3)c3ncc(C4CC4)nc32)CC1 [Example 11, tert-butyl 4-(3-{[(1H-benzimidazol-2-yl)methyl]amino}-6-cyclopropyl-1H-pyrazolo[3,4-b]pyrazin-1-yl)piperidine-1-carboxylate]"
,8.53 nM,>2344,38.3 nM,"c1ccc2[nH]c(CNc3nn(C4CCNCC4)c4nc(C5CC5)cnc34)nc2c1 [Example 12, N-[(1H-benzimidazol-2-yl)methyl]-6-cyclopropyl-1-(piperidin-4-yl)-1H-pyrazolo[3,4-b]pyrazin-3-amine]"
,43.9 nM,>455,168 nM,"O=CO.c1ccc(-n2nc(NCc3nc4ccccc4[nH]3)c3ncc(C4CC4)nc32)cc1 [Example 13, formic acid—N-[(1H-benzimidazol-2-yl)methyl]-6-cyclopropyl-1-phenyl-1H-pyrazolo[3,4-b]pyrazin-3-amine (1/1)]"
,84 nM,>238,70.2 nM,"c1ccc2[nH]c(CNc3nn(C4CCOCC4)c4nc(C5CC5)cnc34)nc2c1 [Example 16, N-[(1H-benzimidazol-2-yl)methyl]-6-cyclopropyl-1-(oxan-4-yl)-1H-pyrazolo[3,4-b]pyrazin-3-amine]"
,4.66 nM,>4294,4.83 nM,"CN1CCC(n2nc(NCc3nc4cc(Cl)c(Cl)cc4[nH]3)c3ncc(C4CC4)nc32)CC1 [Example 19, 6-cyclopropyl-N-[(5,6-dichloro-1H-benzimidazol-2-yl)methyl]-1-(1-methylpiperidin-4-yl)-1H-pyrazolo[3,4-b]pyrazin-3-amine]"
